Experimental data taken from PMC11167047 (Cell Death Discovery, 2024).

Key:
Experiment in all cases: kinome screen (33PanQinase)
Type in all cases: biochemical
ASK1 = molecular target: T1, ASK1 (Homo sapiens, UniProt Q99683)
T1 construct: purchased Reaction Biology Europe GmbH (formerly ProQinase)
T1 sequence (Q99683 1-1374): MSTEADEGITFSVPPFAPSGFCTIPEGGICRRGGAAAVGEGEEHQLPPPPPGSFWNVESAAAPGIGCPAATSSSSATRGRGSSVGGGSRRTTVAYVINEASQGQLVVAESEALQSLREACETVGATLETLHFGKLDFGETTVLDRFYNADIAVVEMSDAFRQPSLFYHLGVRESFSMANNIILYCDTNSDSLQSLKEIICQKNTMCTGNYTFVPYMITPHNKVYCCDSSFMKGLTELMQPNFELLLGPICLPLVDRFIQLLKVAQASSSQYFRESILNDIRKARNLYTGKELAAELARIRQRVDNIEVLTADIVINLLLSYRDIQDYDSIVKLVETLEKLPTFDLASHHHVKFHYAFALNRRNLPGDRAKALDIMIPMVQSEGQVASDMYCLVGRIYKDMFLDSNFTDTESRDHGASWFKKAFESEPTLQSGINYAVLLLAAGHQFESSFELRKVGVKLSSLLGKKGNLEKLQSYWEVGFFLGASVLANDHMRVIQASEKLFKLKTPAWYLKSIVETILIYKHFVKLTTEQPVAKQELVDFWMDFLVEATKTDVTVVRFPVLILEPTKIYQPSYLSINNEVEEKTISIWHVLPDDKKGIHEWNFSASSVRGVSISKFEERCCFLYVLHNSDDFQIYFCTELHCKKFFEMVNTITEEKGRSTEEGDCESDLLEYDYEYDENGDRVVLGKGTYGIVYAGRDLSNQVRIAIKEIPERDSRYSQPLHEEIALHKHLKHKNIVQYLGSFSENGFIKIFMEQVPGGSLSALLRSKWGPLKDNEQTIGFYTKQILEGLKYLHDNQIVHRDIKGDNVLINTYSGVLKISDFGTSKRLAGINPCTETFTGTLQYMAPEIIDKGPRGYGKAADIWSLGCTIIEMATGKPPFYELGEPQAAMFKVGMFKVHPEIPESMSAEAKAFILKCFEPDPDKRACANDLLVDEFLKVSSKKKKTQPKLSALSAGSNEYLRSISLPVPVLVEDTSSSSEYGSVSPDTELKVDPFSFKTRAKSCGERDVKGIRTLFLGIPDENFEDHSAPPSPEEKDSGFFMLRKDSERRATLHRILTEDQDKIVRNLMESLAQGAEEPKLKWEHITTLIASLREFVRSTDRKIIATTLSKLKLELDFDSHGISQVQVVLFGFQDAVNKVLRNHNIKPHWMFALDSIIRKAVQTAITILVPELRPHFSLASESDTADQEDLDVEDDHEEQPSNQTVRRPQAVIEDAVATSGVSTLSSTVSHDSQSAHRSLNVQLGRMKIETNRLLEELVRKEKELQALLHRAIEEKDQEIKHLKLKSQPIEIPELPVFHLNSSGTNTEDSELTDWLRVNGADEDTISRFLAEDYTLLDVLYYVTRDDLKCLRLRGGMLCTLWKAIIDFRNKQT
Experimental: (§1) The Kinome Screening was performed by Reaction Biology Europe GmbH (http://reactionbiology.com; Freiburg i. Br., Germany).

CSF1R = molecular target: T2, CSF1R (Homo sapiens, UniProt P07333)
T2 construct: purchased Reaction Biology Europe GmbH (formerly ProQinase)
T2 sequence (P07333 20-972): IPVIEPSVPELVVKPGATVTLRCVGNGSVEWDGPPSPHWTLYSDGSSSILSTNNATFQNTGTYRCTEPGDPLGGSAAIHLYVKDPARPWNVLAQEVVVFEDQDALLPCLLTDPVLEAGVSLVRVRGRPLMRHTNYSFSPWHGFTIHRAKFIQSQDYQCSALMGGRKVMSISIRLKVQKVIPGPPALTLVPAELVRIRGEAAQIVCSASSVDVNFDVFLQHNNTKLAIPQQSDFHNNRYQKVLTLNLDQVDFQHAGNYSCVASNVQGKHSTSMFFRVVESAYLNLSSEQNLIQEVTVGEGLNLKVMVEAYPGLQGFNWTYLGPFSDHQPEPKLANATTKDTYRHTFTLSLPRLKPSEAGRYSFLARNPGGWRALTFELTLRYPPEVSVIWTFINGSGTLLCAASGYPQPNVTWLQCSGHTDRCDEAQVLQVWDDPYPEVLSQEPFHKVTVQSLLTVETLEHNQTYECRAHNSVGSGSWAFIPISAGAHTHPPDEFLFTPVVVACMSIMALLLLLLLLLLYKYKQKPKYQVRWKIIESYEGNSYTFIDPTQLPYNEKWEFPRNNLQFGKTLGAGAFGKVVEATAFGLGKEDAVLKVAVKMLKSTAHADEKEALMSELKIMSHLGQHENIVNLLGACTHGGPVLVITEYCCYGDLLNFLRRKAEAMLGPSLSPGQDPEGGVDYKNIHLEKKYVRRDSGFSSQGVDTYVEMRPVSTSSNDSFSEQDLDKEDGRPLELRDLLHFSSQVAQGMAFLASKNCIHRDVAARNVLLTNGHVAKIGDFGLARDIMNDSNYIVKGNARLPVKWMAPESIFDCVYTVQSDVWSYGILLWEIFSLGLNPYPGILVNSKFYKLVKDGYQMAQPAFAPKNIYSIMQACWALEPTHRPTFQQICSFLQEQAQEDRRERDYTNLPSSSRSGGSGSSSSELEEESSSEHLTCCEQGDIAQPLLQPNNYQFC
Experimental: as §1

MERTK = molecular target: T3, MERTK (Homo sapiens, UniProt Q12866)
T3 construct: purchased Reaction Biology Europe GmbH (formerly ProQinase)
T3 sequence (Q12866 21-999): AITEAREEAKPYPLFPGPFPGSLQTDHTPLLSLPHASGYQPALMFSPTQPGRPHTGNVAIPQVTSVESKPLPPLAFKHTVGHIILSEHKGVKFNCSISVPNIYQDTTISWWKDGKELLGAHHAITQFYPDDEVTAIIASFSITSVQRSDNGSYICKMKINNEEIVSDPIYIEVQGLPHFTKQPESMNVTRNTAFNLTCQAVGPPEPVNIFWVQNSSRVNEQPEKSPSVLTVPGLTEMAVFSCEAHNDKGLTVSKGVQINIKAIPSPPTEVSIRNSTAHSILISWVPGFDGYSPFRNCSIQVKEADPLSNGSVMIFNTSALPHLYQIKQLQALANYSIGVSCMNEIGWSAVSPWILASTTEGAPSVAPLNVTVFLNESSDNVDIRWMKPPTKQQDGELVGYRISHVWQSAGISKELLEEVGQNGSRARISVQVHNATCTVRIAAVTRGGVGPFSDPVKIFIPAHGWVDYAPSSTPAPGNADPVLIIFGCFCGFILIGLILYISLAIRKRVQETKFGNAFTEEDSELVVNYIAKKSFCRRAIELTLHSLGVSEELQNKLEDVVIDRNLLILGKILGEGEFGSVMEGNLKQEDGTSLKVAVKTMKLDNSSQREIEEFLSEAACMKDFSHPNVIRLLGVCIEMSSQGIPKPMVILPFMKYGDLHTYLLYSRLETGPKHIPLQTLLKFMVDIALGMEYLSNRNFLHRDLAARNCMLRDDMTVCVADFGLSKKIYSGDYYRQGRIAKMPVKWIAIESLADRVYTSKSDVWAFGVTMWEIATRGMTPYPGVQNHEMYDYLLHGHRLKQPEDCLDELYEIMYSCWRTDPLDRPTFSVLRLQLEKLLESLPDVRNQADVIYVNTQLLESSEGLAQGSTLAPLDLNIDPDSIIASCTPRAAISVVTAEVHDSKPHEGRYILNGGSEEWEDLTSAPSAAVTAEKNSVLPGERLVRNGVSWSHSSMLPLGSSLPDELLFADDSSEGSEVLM
Experimental: as §1

NEK6 = molecular target: T4, NEK6 (Homo sapiens, UniProt Q9HC98)
T4 construct: purchased Reaction Biology Europe GmbH (formerly ProQinase)
T4 sequence (Q9HC98 whole entry): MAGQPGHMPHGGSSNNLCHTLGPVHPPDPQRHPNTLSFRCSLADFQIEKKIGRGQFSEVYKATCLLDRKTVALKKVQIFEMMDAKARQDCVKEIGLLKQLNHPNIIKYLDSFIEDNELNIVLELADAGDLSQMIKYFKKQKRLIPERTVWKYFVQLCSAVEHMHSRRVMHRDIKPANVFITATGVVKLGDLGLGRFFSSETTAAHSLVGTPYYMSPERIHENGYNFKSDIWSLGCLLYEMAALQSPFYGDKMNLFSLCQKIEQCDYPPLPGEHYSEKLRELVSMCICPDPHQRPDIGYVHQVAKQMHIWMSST
Experimental: as §1

TGFBR1 = molecular target: T5, TGFBR1 (Homo sapiens, UniProt P36897)
T5 construct: purchased Reaction Biology Europe GmbH (formerly ProQinase)
T5 sequence (P36897 34-503): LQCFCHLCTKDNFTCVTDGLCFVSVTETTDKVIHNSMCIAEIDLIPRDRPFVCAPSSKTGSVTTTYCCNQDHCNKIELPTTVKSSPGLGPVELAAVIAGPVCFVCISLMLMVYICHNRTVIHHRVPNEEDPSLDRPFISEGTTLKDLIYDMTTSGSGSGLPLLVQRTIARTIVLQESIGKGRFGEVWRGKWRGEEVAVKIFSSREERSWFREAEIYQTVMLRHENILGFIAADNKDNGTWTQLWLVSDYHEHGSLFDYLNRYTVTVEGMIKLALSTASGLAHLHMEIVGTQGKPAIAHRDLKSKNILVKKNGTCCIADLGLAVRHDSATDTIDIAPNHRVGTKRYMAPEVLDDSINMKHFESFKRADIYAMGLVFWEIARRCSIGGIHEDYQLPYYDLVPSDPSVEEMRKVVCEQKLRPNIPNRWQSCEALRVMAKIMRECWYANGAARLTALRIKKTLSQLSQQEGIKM
Experimental: as §1

## c1ccc(CNc2cc(-c3c[nH]c4ncccc34)ccn2)cc1 [meriolin 36]
ASK1; 0.3 µM
  residual kinase activity: 50 % of control
ASK1; 3 µM
  residual kinase activity: 15 % of control
CSF1R; 0.3 µM
  residual kinase activity: 33 % of control
CSF1R; 3 µM
  residual kinase activity: 14 % of control
MERTK; 0.3 µM
  residual kinase activity: 69 % of control
MERTK; 3 µM
  residual kinase activity: 36 % of control
NEK6; 0.3 µM
  residual kinase activity: 112 % of control
NEK6; 3 µM
  residual kinase activity: 108 % of control
TGFBR1; 0.3 µM
  residual kinase activity: 18 % of control
TGFBR1; 3 µM
  residual kinase activity: 0 % of control

## COc1ccnc2[nH]cc(-c3cc(N)nc(N)c3)c12 [meriolin 16]
ASK1; 0.03 µM
  residual kinase activity: 97 % of control
ASK1; 0.3 µM
  residual kinase activity: 85 % of control
CSF1R; 0.03 µM
  residual kinase activity: 90 % of control
CSF1R; 0.3 µM
  residual kinase activity: 88 % of control
MERTK; 0.03 µM
  residual kinase activity: 97 % of control
MERTK; 0.3 µM
  residual kinase activity: 86 % of control
NEK6; 0.03 µM
  residual kinase activity: 107 % of control
NEK6; 0.3 µM
  residual kinase activity: 104 % of control
TGFBR1; 0.03 µM
  residual kinase activity: 65 % of control
TGFBR1; 0.3 µM
  residual kinase activity: 67 % of control
